In series [1] the test system is CL097 triggered IFNα release in human whole blood. The series can be described thus: Ex vivo human IFNα release inhibition (human whole blood assay). It is filed as cell-based. The following applies: CL097 2 μg/mL, 3 h 30 min at 37° C. The text has this:
4.10.1. Ex Vivo Human IFNα and TNFα Release Inhibition (Human Whole Blood Assay)
The aim of the assay is to evaluate the activity of compounds of the invention on the activated TLR/IRAK-4 pathway in an ex vivo human whole blood setting. Toll-like receptors (TLRs) are pattern recognition receptors that recognize a wide variety of microbial molecules, called pathogen-associated molecular patterns (PAMPs). Human TLR7 and TLR8 recognize imidazoquinoline compounds (e.g., CL097—CAS n #1026249-18-2) and single stranded RNAs as their natural ligands. Activation of TLRs leads to the production of several cytokines (e.g., IFNα, TNFα, IL-8, IL-6) by the TLR agonist-treated cells, whereas IRAK4 leads to the production of IFNα. Cytokine release is used as readout in this assay and represents a measure for the level of inhibition of the TLR/IRAK-4 pathway by the tested compound. It should be noted that in the context of the complete organism, other sources for these cytokines exist that are not dependent on the TLR/IRAK-4 pathway, such as e.g., macrophages (upon activation of the Fcγ receptor (Yan et al., 2012)) or T cells (upon activation of the T cell receptor (Brehm et al., 2005)).
4.10.1.1. Experimental Design
Blood was collected from healthy volunteers into lithium heparin tubes by venipuncture, then gently inverted several times to prevent clotting and incubated for at least 15 min at 37° C. on a rocking mixer shaker. Then, 100 μL of blood was dispensed into polypropylene 96-well microplate and pre-incubated in duplicate with 0.3% DMSO or test compound at different concentrations (from 30 to 0.01 μM, 3-fold dilutions to get 0.3% DMSO at the final) for 15 min at 37° C. After this pre-incubation, blood was triggered with CL097 (2 μg/mL from 1 mg/mL solution in water; InvivoGen, tlrl-c97) for 3 h 30 min at 37° C. Microtubes were centrifuged at 5000×g for 10 min at 4° C. and approximately 40 μL of plasma were collected into a polystyrene 96-well plate. Plasma could be analyzed freshly, within 30 min after triggering, or frozen at −80° C. Finally, the quantification of TNFα and IFNα were performed in the plasma using AlphaLISA Kit for TNFα and IFNα according to the manufacturer's instructions and read on the Ensight (PerkinElmer).
A standard curve was created by plotting on log-log the mean […] on the y-axis against the concentration on the x-axis and a 4-parameters logistic regression (4PL) was made through the points. For each blood sample, the IFNα concentrations of the samples were determined from the fit. Data were then expressed as a percentage of inhibition (PIN) for each replicate using the formula:
With mean IFNα with CL097=mean IFNα concentration of replicate samples triggered with CL097; IFNαsample1=IFNα concentration of sample 1; mean IFNα with vehicle=mean IFNα concentration of replicate samples treated with vehicle.
Curve fitting for pIC50 determination were generated using mean PIN±sem. Graphs and pIC50 calculations were derived using Prism 5.03 software (GraphPad).

For series [2], the system named is Human Hepatocyte. The series can be described thus: Metabolic stability in hepatocytes (human). It is filed as in vitro ADME. The following applies: 1 μM test compound, cryopreserved human hepatocytes. The method, then: 4.6. Metabolic Stability in Hepatocytes
The aim of this assay is to determine the metabolic stability of the compound in hepatocytes (cryopreserved) of different species. Low hepatocyte stability may result in the formation of unwanted metabolites, high clearance, and therefore is not desirable.
The decrease in parent was assessed by measuring the percentage remaining by LC-MS/MS analysis.
A 10 mM stock solution of test compound in DMSO was first diluted in DMSO to 3 mM, and then in modified Krebs-Henseleit buffer (Sigma, K3753) to 5 μM. This compound dilution was added to a suspension of pooled cryopreserved hepatocytes (BioreclamationIVT) at 37° C. under gentle shaking.
Final reaction conditions were: 1 μM of test compound, 0.03% DMSO, 0.5 million viable hepatocytes/mL, and 75 μL incubation volume.
Testosterone (1 μM) and 7-hydroxycoumarin (1 μM) were used, respectively as phase I and phase II metabolic reaction controls.
After 0, 10, 20, 45, 90, 120 and 180 min of incubation, the reaction was terminated with 225 μL of MeCN:MeOH (2:1) containing 100 ng/mL of diclofenac as analytical internal standard. Samples were mixed, centrifuged and the supernatant analyzed by LC-MS/MS.
The instrument responses (ratios of test compound and internal standard peak areas) were referenced to the zero time point samples (considered as 100%) in order to determine the percentage of compound remaining.
Plots of percentage compound remaining were used to determine the intrinsic clearance in the hepatocyte incubations using the following equations:
Scaled Clint [L/h/kg]=Clint[μL/min/10^6 cells]*#(10^6) cells/g liver*60*( 1/10^6) Scaled Clint unbound [L/h/kg]=Clint [L/h/kg]/Fu,inc where: fu,inc equals hepatocyte binding, derived from microsomal binding (fu,mic) by following equation: […]

A value given as a limit tells only on which side of the number the result lay.

By IC50 is commonly meant the concentration needed to halve the response being measured. A low value points to higher potency.

In series [1] (Homo sapiens), `COc1cn2nc(CC(F)C(C)(C)O)cc2cc1NC(=O)c1cccn(C2CC2)c1=O` (single isomer, unassigned; enantiomer a) [Compound 25, 1-cyclopropyl-N-[2-(2-fluoro-3-hydroxy-3-methyl-butyl)-6-methoxy-pyrazolo[1,5-a]pyridin-5-yl]-2-oxo-pyridine-3-carboxamide Enantiomer A] had an IC50 of 500 to 1000 nM. Also, the “Human Hepatocyte stability (Perc. remaining at 90 min)” value in series [2] was found to be 97.2 Perc.

Take `COc1cn2nc(CC(F)C(C)(C)O)cc2cc1NC(=O)c1cccn(C2CC2)c1=O` (single isomer, unassigned; enantiomer b) [Compound 26, 1-cyclopropyl-N-[2-(2-fluoro-3-hydroxy-3-methyl-butyl)-6-methoxy-pyrazolo[1,5-a]pyridin-5-yl]-2-oxo-pyridine-3-carboxamide Enantiomer B]: the IC50 in series [1] fell in the range of 1000 to 5000 nM. Besides, in series [2], the “Human Hepatocyte stability (Perc. remaining at 90 min)” value was 97.8 Perc.

`COc1cn2nc(CCC(C)(C)O)cc2cc1NC(=O)c1cccn(C2CC2)c1=O` [Compound 1, 1-cyclopropyl-N-[2-(3-hydroxy-3-methylbutyl)-6-methoxypyrazolo[1,5-a]pyridin-5-yl]-2-oxopyridine-3-carboxamide] had an IC50 in series [1] (Homo sapiens) of 0.1 to 500 nM. The “Human Hepatocyte stability (Perc. remaining at 90 min)” value in series [2] was 96.6 Perc.

`COc1cn2nc(CCC(C)(C)O)cc2cc1NC(=O)c1cccn(C)c1=O` [Compound 2, N-[2-(3-hydroxy-3-methylbutyl)-6-methoxypyrazolo[1,5-a]pyridin-5-yl]-1-methyl-2-oxopyridine-3-carboxamide]: the IC50 in series [1] (Homo sapiens) is 500 to 1000 nM. The “Human Hepatocyte stability (Perc. remaining at 90 min)” value in series [2] worked out at 100.45 Perc.

`COc1cn2nc(CCC(C)(C)O)cc2cc1NC(=O)c1cccc(C(F)(F)F)n1` [Compound 3, N-[2-(3-hydroxy-3-methylbutyl)-6-methoxypyrazolo[1,5-a]pyridin-5-yl]-6-(trifluoromethyl)pyridine-2-carboxamide] displayed an IC50 in series [1] (Homo sapiens) of 1000 to 5000 nM. Also, in series [2], the “Human Hepatocyte stability (Perc. remaining at 90 min)” value was found to be 22.8 Perc.

On to `CC(C)(O)CCc1cc2cc(NC(=O)c3cccc(C(F)(F)F)n3)c(C(N)=O)cn2n1` [Compound 4, 2-(3-hydroxy-3-methylbutyl)-5-[[6-(trifluoromethyl)pyridine-2-carbonyl]amino]pyrazolo[1,5-a]pyridine-6-carboxamide], for which the IC50 in series [1] (Homo sapiens) lay within 1000 to 5000 nM.

In series [1] (Homo sapiens), `CNC(=O)c1cn2nc(CCC(C)(C)O)cc2cc1NC(=O)c1cccc(C(F)(F)F)n1` [Compound 5, 2-(3-hydroxy-3-methylbutyl)-N-methyl-5-[[6-(trifluoromethyl)pyridine-2-carbonyl]amino]pyrazolo[1,5-a]pyridine-6-carboxamide] yielded a half-inhibitory concentration (IC50) of 1000 to 5000 nM. Moreover, the “Human Hepatocyte stability (Perc. remaining at 90 min)” value in series [2] was 94.5 Perc.

For the compound `COc1cn2nc(CCC(C)(C)O)cc2cc1NC(=O)c1cccn(C(F)F)c1=O` [Compound 7, 1-(difluoromethyl)-N-[2-(3-hydroxy-3-methyl-butyl)-6-methoxy-pyrazolo[1,5-a]pyridin-5-yl]-2-oxo-pyridine-3-carboxamide], the IC50 in series [1] (Homo sapiens) fell in the range of 1000 to 5000 nM.

With `CNC(=O)c1cn2nc(C3CCCS(=O)(=O)C3)cc2cc1NC(=O)c1cccc(C(F)(F)F)n1` (stereo not shown) [Compound 8, 2-(1,1-dioxothian-3-yl)-N-methyl-5-[[6-(trifluoromethyl)pyridine-2-carbonyl]amino]pyrazolo[1,5-a]pyridine-6-carboxamide], the “Human Hepatocyte stability (Perc. remaining at 90 min)” value in series [2] is listed as 107 Perc.

The compound `CCOc1cn2nc(CCC(C)(C)O)cc2cc1NC(=O)c1cccn(C(F)F)c1=O` [Compound 9, 1-(difluoromethyl)-N-[6-ethoxy-2-(3-hydroxy-3-methyl-butyl)pyrazolo[1,5-a]pyridin-5-yl]-2-oxo-pyridine-3-carboxamide] gave an IC50 in series [1] (Homo sapiens) of 1000 to 5000 nM. In series [2], the “Human Hepatocyte stability (Perc. remaining at 90 min)” value was 85.6 Perc.

In turn, `CNC(=O)c1cn2nc(C3CCN(C)CC3)cc2cc1NC(=O)c1cccc(C(F)(F)F)n1` [Compound 12, N-methyl-2-(1-methyl-4-piperidyl)-5-[[6-(trifluoromethyl)pyridine-2-carbonyl]amino]pyrazolo[1,5-a]pyridine-6-carboxamide] returned an IC50 in series [1] (Homo sapiens) of 1000 to 5000 nM.

In the case of `COc1c(NC(=O)c2cccn(C3CC3)c2=O)cc2cc(CCC(C)(C)O)nn2c1C` [Compound 13, 1-cyclopropyl-N-[2-(3-hydroxy-3-methyl-butyl)-6-methoxy-7-methyl-pyrazolo[1,5-a]pyridin-5-yl]-2-oxo-pyridine-3-carboxamide], the “Human Hepatocyte stability (Perc. remaining at 90 min)” value in series [2] worked out at 98.45 Perc.

`CNC(=O)c1cn2nc(C3CCOCC3)cc2cc1NC(=O)c1cccc(C(F)F)n1` [Compound 15, 5-[[6-(difluoromethyl)pyridine-2-carbonyl]amino]-N-methyl-2-tetrahydropyran-4-yl-pyrazolo[1,5-a]pyridine-6-carboxamide]: in series [1] (Homo sapiens), the IC50 is greater than 5000 nM.

In the case of `NC(=O)c1cn2nc(C3CCOCC3)cc2cc1NC(=O)c1cccc(C(F)F)n1` [Compound 16, 5-[[6-(difluoromethyl)pyridine-2-carbonyl]amino]-2-tetrahydropyran-4-yl-pyrazolo[1,5-a]pyridine-6-carboxamide], in series [2], the “Human Hepatocyte stability (Perc. remaining at 90 min)” value is given as 75.95 Perc.

`CCOc1cn2nc(CCC(C)(C)O)cc2cc1NC(=O)c1cccn(C2CC2)c1=O` [Compound 17, 1-cyclopropyl-N-[6-ethoxy-2-(3-hydroxy-3-methyl-butyl)pyrazolo[1,5-a]pyridin-5-yl]-2-oxo-pyridine-3-carboxamide] registered an IC50 in series [1] (Homo sapiens) of 1000 to 5000 nM. Moreover, the “Human Hepatocyte stability (Perc. remaining at 90 min)” value in series [2] is 87.25 Perc.

Take `CCOc1cn2nc(CCC(C)(C)O)cc2cc1NC(=O)c1cccn(C)c1=O` [Compound 18, N-[6-ethoxy-2-(3-hydroxy-3-methyl-butyl)pyrazolo[1,5-a]pyridin-5-yl]-1-methyl-2-oxo-pyridine-3-carboxamide]: the IC50 in series [1] (Homo sapiens) is 1000 to 5000 nM. The “Human Hepatocyte stability (Perc. remaining at 90 min)” value in series [2] was 90.8 Perc.

For the compound `CNC(=O)c1cn2nc(CCC(C)(C)O)cc2cc1NC(=O)c1cccc(C(F)F)n1` [Compound 19, 5-[[6-(difluoromethyl)pyridine-2-carbonyl]amino]-2-(3-hydroxy-3-methyl-butyl)-N-methyl-pyrazolo[1,5-a]pyridine-6-carboxamide], the IC50 in series [1] (Homo sapiens) lay in the range of 500 to 1000 nM.

For the compound `CC(C)(O)CCc1cc2cc(NC(=O)c3cccc(C(F)F)n3)c(C(N)=O)cn2n1` [Compound 20, 5-[[6-(difluoromethyl)pyridine-2-carbonyl]amino]-2-(3-hydroxy-3-methyl-butyl)pyrazolo[1,5-a]pyridine-6-carboxamide], in series [1] (Homo sapiens), the IC50 lay in the range of 1000 to 5000 nM. Besides, the “Human Hepatocyte stability (Perc. remaining at 90 min)” value in series [2] is reported as 81.65 Perc.

The values are drawn from US20220218679A1, “NOVEL COMPOUNDS AND PHARMACEUTICAL COMPOSITIONS THEREOF FOR THE TREATMENT OF INFLAMMATORY DISORDERS” (Galapagos NV, priority 2019, published 2022).
